Data reported in patent publication US20170087205A1, “Replacement Therapy for Natriuretic Peptide Deficiencies” (priority 2014, published 2017).
Positions of bridges follow the written chain, without caps; N, C: chain ends. Non-standard residues stand in square brackets, D forms with d. Residues, ends and D or L forms follow the SMILES beside them. *: point of attachment. X1 = N=C(N)NCCC[C@H]1C(=O)N[C@@H](C(N)=O)CN1*; dNle = CCCC[C@@H](N)C(=O)O; Heptanoyl = CCCCCCC(=O)*

Columns and labels:
[1] = in vivo; cited from earlier work
human NEP (hNEP) = human NEP (hNEP) (Homo sapiens, UniProt P08473); assay: Metabolism by human neutral endopeptidase (hNEP); assay type: in vitro ADME; conditions: two hours, 37° C., substrate concentration 50 μM
Procedure: Pharmacol. 191:341-366 (2009)). A comparison was made between the sensitivity of the mimetic of formula IV and ANP to metabolism by human NEP (hNEP) (substrate concentration 50 μM). After two hours exposure to hNEP solution at 37° C., there was minimal degradation of the mimetic of formula IV (92% remaining; n=5). In contrast, under these conditions ANP was about 90% degraded after 60 minutes and 100% degraded after two hours (n=4). […] Results are shown in FIG. 1; results in FIG. 1 are expressed as the percent of the starting material, and are either the mean of 1-5 experiments or, where error bars are shown, are the mean±standard deviation.

[2] = Safety study in healthy volunteers: pharmacodynamic parameters (plasma cGMP); assay type: in vivo, human; conditions: mean ± SD
Source text: Cyclic guanosine monophosphate (cGMP) in the plasma samples was extracted using a protein precipitation method. cGMP and internal standard, cyclic adenosine monophosphate (cAMP), were separated using a HPLC technique and detected by an Applied Biosystems API-4000 liquid chromatography-tandem mass spectrometer (LC-MS/MS) with turbo-ion spray ionization (electrospray) in positive ion mode. Positive ions were detected in multiple reaction monitoring (MRM) mode with Precursor→Product ion pairs of 346.3→152.1 for cGMP, and 330.0→136.3 for cAMP.
In a safety study, the mimetic of formula IV was administered to healthy volunteers. Doses of 0.1, 0.3, 0.7 and 1.0 μg/kg of the mimetic of formula IV were administered.
Kel is the apparent terminal elimination rate constant, calculated by linear regression of the terminal linear portion of the log concentration versus the time curve. The plasma cGMP concentrations returned to baseline levels by approximately 8 hours after dosing following 0.7 μg/kg and 1.0 μg/kg of the mimetic of formula IV.

human NPRA = biological target: T1, human NPRA (Homo sapiens, UniProt P16066); assay type: cell-based; conditions: human NPRA in HEK cells; mean ± SD
T1 sequence (P16066 33-1061): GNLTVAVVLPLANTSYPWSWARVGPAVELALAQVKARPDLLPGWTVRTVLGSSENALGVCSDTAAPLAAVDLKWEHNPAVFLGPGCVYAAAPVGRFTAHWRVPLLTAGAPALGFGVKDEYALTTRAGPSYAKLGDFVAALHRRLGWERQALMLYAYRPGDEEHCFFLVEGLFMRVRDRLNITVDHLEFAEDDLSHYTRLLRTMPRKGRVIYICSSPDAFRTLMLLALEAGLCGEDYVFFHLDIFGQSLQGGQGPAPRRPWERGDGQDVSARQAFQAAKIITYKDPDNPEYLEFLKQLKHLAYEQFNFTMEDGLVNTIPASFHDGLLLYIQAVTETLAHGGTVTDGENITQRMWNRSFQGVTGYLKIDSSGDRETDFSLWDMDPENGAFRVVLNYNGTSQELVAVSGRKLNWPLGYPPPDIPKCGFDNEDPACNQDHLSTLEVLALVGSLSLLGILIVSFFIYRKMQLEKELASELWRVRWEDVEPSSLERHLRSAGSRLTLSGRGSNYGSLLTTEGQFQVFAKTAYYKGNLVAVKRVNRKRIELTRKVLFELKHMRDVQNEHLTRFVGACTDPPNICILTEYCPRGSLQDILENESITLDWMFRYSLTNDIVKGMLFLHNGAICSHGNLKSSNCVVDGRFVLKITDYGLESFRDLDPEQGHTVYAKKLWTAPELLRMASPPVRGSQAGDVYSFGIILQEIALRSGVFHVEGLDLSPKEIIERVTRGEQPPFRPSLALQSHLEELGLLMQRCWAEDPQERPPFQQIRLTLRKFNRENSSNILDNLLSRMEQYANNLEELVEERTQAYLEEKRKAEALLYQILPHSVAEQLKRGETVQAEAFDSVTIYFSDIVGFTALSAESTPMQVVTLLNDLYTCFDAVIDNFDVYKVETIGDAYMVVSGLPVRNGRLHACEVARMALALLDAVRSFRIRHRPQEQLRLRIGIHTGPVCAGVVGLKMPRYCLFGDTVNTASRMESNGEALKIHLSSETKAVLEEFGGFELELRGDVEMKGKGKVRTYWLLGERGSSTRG
Procedure: A cDNA clone that encodes for human natriuratic peptide receptor A (NPRA) was purchased from Bio S&T Inc. (Montreal, Quebec). The cDNA clone was inserted into the mammalian expression vector pcDNA3.1 (Invitrogen) and transfected into HEK-293 cells. Stable clones were selected by culture of cells in the presence of G418 sulfate. […] HEK-hNPRA cells were maintained in culture at 37° C. in 5% CO2 in Dulbecco's Modified Eagle's Medium (DMEM) supplemented with 10% FBS, G418 sulfate (300 μg/mL) sodium glutamate (0.29 mg/mL), penicillin (100 units/mL) and streptromycin (100 ug/mL).
Functional evaluation of natriuretic peptide mimetics was performed by measuring the accumulation of intracellular cGMP in HEK-293 cells that express recombinant hNPR-A. HEK-NPRA cells were harvested by washing and centrifugation in Cell Dissociation Buffer (Gibco, Life Technologies). Pelleted cells were resuspended in Hank's Balanced Salt Solution (HBSS) containing 10 mM Hepes (pH 7.4), 5 mM MgCl2, 200 mM L-glutamine, 1 mM 1,10-phenanthroline and BSA (0.5 mg/mL). Following centrifugation, cells were resuspended in the above buffer supplemented with 0.5 mM 3-isobutyl-1-methylxanthine (IBMX). […] Accumulation of cGMP was measured using the cGMP Flashplate RIA (Perkin-Elmer). Data analysis and EC50 values were determined by using nonlinear regression analysis with GraphPad Prism® software.

Chain of human NEP (hNEP) (P08473 whole entry): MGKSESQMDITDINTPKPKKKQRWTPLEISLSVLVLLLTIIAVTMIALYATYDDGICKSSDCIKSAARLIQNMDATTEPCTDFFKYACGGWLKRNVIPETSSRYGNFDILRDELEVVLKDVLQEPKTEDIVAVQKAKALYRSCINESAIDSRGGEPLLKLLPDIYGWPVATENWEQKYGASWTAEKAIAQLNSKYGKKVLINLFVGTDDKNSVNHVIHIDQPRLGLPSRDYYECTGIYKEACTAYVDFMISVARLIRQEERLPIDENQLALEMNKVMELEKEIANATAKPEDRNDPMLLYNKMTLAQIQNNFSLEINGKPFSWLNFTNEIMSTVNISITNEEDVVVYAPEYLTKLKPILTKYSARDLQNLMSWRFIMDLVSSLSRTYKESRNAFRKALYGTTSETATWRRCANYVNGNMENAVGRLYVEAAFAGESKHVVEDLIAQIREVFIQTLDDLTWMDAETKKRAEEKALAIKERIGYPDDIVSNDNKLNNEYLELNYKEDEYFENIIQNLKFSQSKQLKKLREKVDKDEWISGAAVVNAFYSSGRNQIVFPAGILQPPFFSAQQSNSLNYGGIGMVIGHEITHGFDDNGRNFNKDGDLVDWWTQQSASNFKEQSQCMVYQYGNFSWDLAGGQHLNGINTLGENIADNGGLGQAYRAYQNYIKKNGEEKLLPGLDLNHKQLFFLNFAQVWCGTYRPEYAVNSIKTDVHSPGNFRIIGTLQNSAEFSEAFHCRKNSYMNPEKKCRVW

Structure (SMILES)	reported human plasma half-life [1]	percent remaining after exposure to hNEP (human NEP (hNEP)) [%]	t½ ([2]; 0.7 μg/kg) [h]	t½ ([2]; 1.0 μg/kg) [h]	Function (cGMP) Emax (% of ANP response) (human NPRA)
CC[C@H](C)[C@@H]1NC(=O)[C@H](CCCNC(=N)N)NC(=O)[C@H](CC(=O)O)NC(=O)[C@H](CC(C)C)NC(=O)[C@H](CCCCN)NC(=O)[C@H](CC(C)C)NC(=O)CNC(=O)[C@H](Cc2ccccc2)NC(=O)[C@@H](NC(=O)CNC(=O)[C@H](CCCCN)NC(=O)[C@H](CO)NC(=O)[C@H](CC(C)C)NC(=O)CN)CSSC[C@@H](C(=O)O)NC(=O)CNC(=O)[C@H](CC(C)C)NC(=O)CNC(=O)[C@H](CO)NC(=O)[C@H](CCSC)NC(=O)[C@H](CO)NC(=O)CNC1=O [hCNP]	about 2 minutes	1	–	–	–
CCCCCCC(=O)N[C@H]1CSSC[C@@H](C(=O)N[C@@H](Cc2ccc(O)cc2)C(=O)N2C[C@H](C(N)=O)NC(=O)[C@@H]2CCCNC(=N)N)NC(=O)[C@H](CO)NC(=O)[C@H]([C@@H](C)CC)NC(=O)[C@H](CCCNC(=N)N)NC(=O)[C@H](CC(=O)O)NC(=O)[C@@H](CCCC)NC(=O)[C@H](CCCNC(=N)N)NC(=O)CNC(=O)[C@@H](C)NC(=O)[C@H](Cc2ccccc2)NC(=O)[C@H](Cc2c[nH]cn2)NC1=O [mimetic of formula IV] (Heptanoyl-CHF[dA]GR[dNle]DRISCY-X1; disulfide 1-12)	–	–	3.03 ± 0.345	2.98 ± 3.61	94 ± 8 % of ANP response
